The values below come from US20100273816A1, “Quinazoline Compounds” (priority 2007, published 2010).

Molecules are shown by their SMILES. Bounds are passed on as bounds.

One assay deals with T1, human LXRβ (Homo sapiens, UniProt P55055).
T1 construct: biotin (biotinylated); made in house; host or cells: E. coli (crude extract)
T1 sequence (P55055 1-460): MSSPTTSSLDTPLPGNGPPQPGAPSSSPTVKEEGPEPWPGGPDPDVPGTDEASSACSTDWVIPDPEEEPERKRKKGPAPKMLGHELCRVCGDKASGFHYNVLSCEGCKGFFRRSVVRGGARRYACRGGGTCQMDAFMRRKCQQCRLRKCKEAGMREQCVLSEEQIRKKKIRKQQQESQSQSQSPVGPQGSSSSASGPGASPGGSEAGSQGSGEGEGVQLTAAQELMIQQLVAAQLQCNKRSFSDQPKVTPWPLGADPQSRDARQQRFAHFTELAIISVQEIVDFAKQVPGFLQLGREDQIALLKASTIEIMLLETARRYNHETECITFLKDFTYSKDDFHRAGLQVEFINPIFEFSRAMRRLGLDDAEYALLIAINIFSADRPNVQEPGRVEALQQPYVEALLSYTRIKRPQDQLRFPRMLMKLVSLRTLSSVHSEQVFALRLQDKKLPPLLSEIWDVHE
Put plainly: Ligand-binding test procedure for human LXRβ (3H T0901317 tracer, flash plates). Particulars: biotinylated hLXRβ from E. coli extract, +4° C. over night, read-out: hLXRB binding assay Mean IC50. How it is done:
I. Ligand-Binding Test Procedure for Human LXRβ.
(§1) Buffer: 100 mM KCl, 100 mM TRIS (pH 7.4 at +4° C.), 8.6% glycerol, 0.1 mM PMSF*, 2 mM MTG*, 0.2% CHAPS (* not used in wash buffer)
Receptor source: E. coli extract from cells expressing biotinylated hLXRβ. Extract was made in a similar buffer as above, but with 50 mM TRIS.
(§2) Washed streptavidin and coated flash plates with wash buffer.
(§3) Diluted receptor extract to give Bmax ˜4000 cpm and add to the wells.
(§4) Wrapped the plates in aluminum foil and stored them at +4° C. over night.
(§5) Made a dilution series in DMSO of the test ligands.
(§6) Made a 5 nM solution of the radioactive tracer in buffer.
Mixed 250 μl diluted tracer with 50 of the test ligand from each concentration of the dilution series.
(§7) Washed the receptor-coated flash plates.
(§8) Added 200 μl per well of the ligand/radiolabel mixture to the receptor-coated flash plates.
(§9) Wrapped the plates in aluminum foil and incubate at +4° C. over night.
(§10) Aspirated wells, and wash the flashed plates. Sealed the plate.
(§11) Measured the remaining radioactivity in the plate.

Another assay deals with T2, human LXRα (Homo sapiens, UniProt Q13133).
T2 construct: biotin (biotinylated); made in house; host or cells: E. coli (crude extract)
T2 sequence (Q13133 1-447): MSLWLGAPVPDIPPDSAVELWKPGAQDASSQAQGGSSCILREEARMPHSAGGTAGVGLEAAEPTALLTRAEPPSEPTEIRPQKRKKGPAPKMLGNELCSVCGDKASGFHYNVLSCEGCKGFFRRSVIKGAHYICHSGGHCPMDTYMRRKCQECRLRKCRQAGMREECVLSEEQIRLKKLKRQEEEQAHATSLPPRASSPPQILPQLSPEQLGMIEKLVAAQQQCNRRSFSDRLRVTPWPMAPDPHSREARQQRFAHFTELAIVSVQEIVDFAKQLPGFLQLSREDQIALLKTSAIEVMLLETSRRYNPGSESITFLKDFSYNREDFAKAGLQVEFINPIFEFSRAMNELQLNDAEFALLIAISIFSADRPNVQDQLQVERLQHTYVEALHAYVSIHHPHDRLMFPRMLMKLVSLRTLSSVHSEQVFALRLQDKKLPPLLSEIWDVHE
Briefly: Ligand-binding test procedure for human LXRα (3H T0901317 tracer, flash plates). Particulars: biotinylated hLXRα from E. coli extract, +4° C. over night, read-out: hLXRa binding assay Mean IC50. How it is done:
II. Ligand-Binding Test Procedure for Human LXRα.
as §1
Receptor source: E. coli extract from cells expressing biotinylated hLXRα. Extract was made in a similar buffer as above, but with 50 mM TRIS.
as §2, §3, §4, §5, §6
Mixed 250 μl diluted tracer with 5 μl of the test ligand from each concentration of the dilution series.
as §7, §8, §9, §10, §11

One may read the IC50 as the concentration that inhibits the measured activity by half.

Regarding `CS(=O)(=O)c1cccc(-c2cccc(-c3nc(-c4ccccc4)nc4c(C(F)(F)F)cccc34)c2)c1` [Example 43, 4-[3′-(methylsulfonyl)biphenyl-3-yl]-2-phenyl-8-(trifluoromethyl)quinazoline], the IC50 on human LXRβ came out at 309 nM; at human LXRα, 20300 nM.

Consider `CCCS(=O)(=O)c1cc(Cl)cc(Oc2cccc(-c3ncnc4c(C(F)(F)F)cccc34)c2)c1` [Example 8, 4-{3-[3-chloro-5-(propylsulfonyl)phenoxy]phenyl}-8-(trifluoromethyl)quinazoline], for which the IC50 on human LXRβ and at human LXRα was more than 1000 nM each time.

Consider `Cc1nc(-c2cc(OCc3cccc(S(C)(=O)=O)c3)ccc2Cl)c2cccc(C(F)(F)F)c2n1` [Example 63, 4-(2-chloro-5-{[3-(methylsulfonyl)benzyl]oxy}phenyl)-2-methyl-8-(trifluoromethyl)quinazoline], for which the IC50 was 181 nM at human LXRβ and 3380 nM on human LXRα.

Consider `CCS(=O)(=O)c1cc(F)cc(Oc2ccc(Cl)c(-c3nc(C)nc4c(C(F)(F)F)cccc34)c2)c1` [Example 62, 4-{2-chloro-5-[3-(ethylsulfonyl)-5-fluorophenoxy]phenyl}-2-methyl-8-(trifluoromethyl)quinazoline], for which the 50% inhibitory concentration (IC50) on human LXRβ was 63 nM; on human LXRα, 1430 nM.

Regarding `CC(C)S(=O)(=O)c1cccc(Oc2ccc(Cl)c(-c3ncnc4c(C(F)(F)F)cccc34)c2)c1` [Example 51, 4-{2-chloro-5-[3-(isopropylsulfonyl)phenoxy]phenyl}-8-(trifluoromethyl)quinazoline], the values for the IC50 on human LXRβ and on human LXRα were 2 nM and 119 nM, respectively.
